Test results as given in patent US10617656B2, “Methods of increasing the cytotoxicity of chemotherapeutic agents with multisubstrate inhibitors of histone, protein-Lys, polyamine acetylation, and polyamine metabolism” (Vanderbilt University, priority 2010, dated 2020).

What was measured:
H358 cells = experiment: Trypan blue exclusion viability assay; assay type: cell-based
GT41F skin fibroblasts = experiment: 96-well MTS viability assay, GT41F fibroblasts; assay type: cell-based, human; conditions: spm single agent, 3 days
Protocol: (§1) Cells were plated in 96-well plates at 2000 cells per well and treated with the indicated doses of spd-3a. Cell viability was measured by the MTS assay 3 days later.
(§2) DLD-1 cells or H358 cells were plated in 96-well plates at 2000 cells per well and treated with the indicated doses of (A) spm-3 or (B) spm-2. (C) Cell viability was measured by the MTS assay 3 days later. Similar experiment using GT41 fibroblasts with spm2 or spm 3. Each assay point represents an average of duplicates.

DLD-1 colon cancer cells = experiment: 96-well MTS viability assay, DLD-1; assay type: cell-based; conditions: single agent, 3 days
Protocol: as §1, §2

[1] = test system: histone H3 lysine 9 acetylation in H358 cells; experiment: Western analysis of histone H3 acetylation/methylation in H358 cells; assay type: cell-based; conditions: 50 μM, 12 hours
Protocol: (A) Structures of 1a, and the acetylated side chain of a lysine residue within the polypeptide chain of a protein targeted by the acetylating enzyme (R1 and R2 are the main chain elements on both sides of the lysyl residue). (B) [^3H]-thymidine incorporation into DNA of H358 cells pulsed for 6 hrs at three different time points after the addition of increasing concentrations of 1a, i.e., at 6-12 hrs (12 hr curve), at 18-24 hours (24 hr curve), or at 42-48 hrs (48 hr curve). Incorporation is represented as a percentage relative to control (untreated) cells. (C) Cell cycle analysis of propidium iodide-stained cells harvested at various times after addition of 50 μM 1a. % of cells in G1, S, and G2 represents the average of two independent profiles. (D) Western analysis of histone H3 lysine 9 acetylation, histone H3 lysine 56 acetylation, histone H3 lysine 9 methylation, and total histone H3, before “c” or at the indicated times after addition of 50 μM 1a. Each lane represents 60 μg cellular protein.
Each lane represents 175 μg cell lysate protein.
One 6 cm culture dish of H358 cells per treatment was used. Cells were treated with 50 μM spm-2, spm-3, or spd-3a for 12 hours. Histones were extracted from cells in 0.2M H2SO4 (as described in Furuta, T., et al (2003) J. Biol. Chem. 278: 20303-20312), followed by SDS-PAGE and Western blotting. Blots were probed with anti-acetyl histone H3-lysine 9 (Upstate Biotechnology, Inc.)
Cells were lysed by adding 1 mL of 0.2 M H2SO4. […]
One 10-cm plate of H358 lung cancer cells (about 2×10^6 cells), grown in DMEM+10% Fetal bovine serum as described in reference, were treated for 24 hours with 50 μM 1a inhibitor. […] Treated cells and untreated (control) cells were harvested by lysing in buffer containing 10 mM Hepes pH 7.5, 100 mM NaCl, 300 mM sucrose, 3 mM MgCl2, 1 mM EDTA, 1 mM DTT, 0.5% Triton X-100, 1 mM PMSF, protease inhibitor pellet (Roche) and analyzed on 10% SDS-PAGE gels, followed by Western immunoblot analysis of total histone H3, methylated histone H3 (methylated on lysine 9), and acetylated histone H3 (acetylated on lysine 9). […]

SMILES	viability at 50 µM (H358 cells; Homo sapiens, NCI-H358, 18 h, read-out: cell viability, single agent) [%]	cell viability, single agent (H358 cells; human, 24 h) [%]	sensitivity of normal fibroblasts (GT41F skin fibroblasts)	suppression of cancer cell growth and viability (DLD-1 colon cancer cells)	histone H3K9 acetylation (Western) [1]
CC(C)(COP(=O)(O)OP(=O)(O)OC[C@H]1O[C@@H](n2cnc3c(N)ncnc32)[C@H](O)[C@@H]1OP(=O)(O)O)[C@@H](O)C(=O)NCCC(=O)NCCSCC(=O)NCCCNCCCCN [1a, spermidine[N1]-CoA]	≥ 96	≥ 96	–	–	–
CC(=O)NCCSCC(=O)NCCCNCCCCNCCCN [spm-3]	–	–	sensitivity similar to that of H358 lung cancer cells	effective as single agents	suppress histone acetylation
